Eight compounds from PubChem BioAssay (NCI) can be followed below.

SMILES strings stand for the structures.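 1) Cells in 96-well plates. 2) Compound, 48 h, 5 concentrations. 3) Linear interpolation between surrounding doses. 4) Unreached endpoint = highest concentration. GI50 marks 50% less growth. TGI: total growth inhibition.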 Bounds are passed on as bounds.

Test systems include MOLT-4 leukemia; OVCAR-3 ovarian; A498 renal; BT-549 breast; EKVX NSCLC; SW-620 colon; HL-60(TB) leukemia; UACC-257 melanoma; U251 CNS; HCC-2998 colon; MALME-3M melanoma; SF-539 CNS; NCI-H522 lung; RPMI-8226 leukemia; A549 NSCLC; MDA-MB-231 breast; HCT-15 colon.
What all share (assay): NCI-60 cell line screen, 48 h

Regarding `N#Cc1ccc(OCc2nc3cc(C(F)(F)F)ccc3nc2-c2ccccc2)cc1`, the TGI with MOLT-4 leukemia, with OVCAR-3 ovarian, with A498 renal, in the test on BT-549 breast, with EKVX NSCLC and in the test with SW-620 colon was more than 100 µM each time. Further, the TGI in the test with HL-60(TB) leukemia, in the test with UACC-257 melanoma, in the test with U251 CNS, in the test on HCC-2998 colon, with MALME-3M melanoma and in the test on SF-539 CNS was more than 100 µM throughout. For the same compound, the TGI in the test on NCI-H522 lung, in the test on RPMI-8226 leukemia, with A549 NSCLC and with MDA-MB-231 breast was more than 100 µM in each case.

For `COC(=O)c1cc(C#Cc2cc(OC)ccc2OC)ccc1OC`, the TGI was 70 µM with MOLT-4 leukemia; 77.6 µM with OVCAR-3 ovarian; more than 100 µM with BT-549 breast; more than 100 µM in the test on EKVX NSCLC; more than 100 µM with SW-620 colon; more than 100 µM in the test on HL-60(TB) leukemia. Further, the TGI with UACC-257 melanoma, in the test on U251 CNS, in the test with HCC-2998 colon, in the test with MALME-3M melanoma, in the test with SF-539 CNS and in the test with NCI-H522 lung was more than 100 µM each time. The TGI in the test on RPMI-8226 leukemia is 41.3 µM; with A549 NSCLC, more than 100 µM; in the test on HCT-15 colon it was more than 100 µM; with MDA-MB-231 breast it was more than 100 µM. The GI50 was 13.6 µM in the test on OVCAR-3 ovarian and 81.1 µM in the test with SF-539 CNS.

For the compound `Cc1cccc2c1NC(=S)[C@@H]1CCCN1C2=O`, the TGI with MOLT-4 leukemia, with OVCAR-3 ovarian, in the test with A498 renal, with BT-549 breast, in the test on EKVX NSCLC and in the test with SW-620 colon was more than 100 µM each time. Moreover, the TGI in the test with UACC-257 melanoma, in the test with U251 CNS, in the test on HCC-2998 colon, in the test with MALME-3M melanoma, with SF-539 CNS and with NCI-H522 lung was more than 100 µM in each case. For the same compound, the TGI in the test with RPMI-8226 leukemia, with A549 NSCLC, with HCT-15 colon and with MDA-MB-231 breast was more than 100 µM in each case.

With `CCCCOC(=O)C(O)Cc1ccoc1` (centres undefined), the TGI with MOLT-4 leukemia, in the test on OVCAR-3 ovarian, in the test on A498 renal, with BT-549 breast, in the test with EKVX NSCLC and with SW-620 colon was more than 100 µM in each case. Further, the TGI with HL-60(TB) leukemia, with U251 CNS, in the test with HCC-2998 colon, in the test with MALME-3M melanoma, in the test on SF-539 CNS and in the test on NCI-H522 lung was more than 100 µM throughout. Besides, the TGI with RPMI-8226 leukemia, in the test on A549 NSCLC, in the test on HCT-15 colon and with MDA-MB-231 breast was more than 100 µM in each case.

Regarding `C=CC[C@H](C)CCC(=O)N1[C@H]2CC3CC[C@@]2(CS1(=O)=O)C3(C)C`, the TGI was 68.1 µM with MOLT-4 leukemia; more than 100 µM with A498 renal; more than 100 µM in the test on BT-549 breast; more than 100 µM in the test on EKVX NSCLC; more than 100 µM in the test on SW-620 colon; 57.3 µM with HL-60(TB) leukemia. Moreover, the TGI in the test with UACC-257 melanoma was more than 100 µM; with U251 CNS it was more than 100 µM; with HCC-2998 colon, more than 100 µM; with MALME-3M melanoma it was more than 100 µM; in the test with NCI-H522 lung it was 99 µM; with RPMI-8226 leukemia it was more than 100 µM. For the same compound, the TGI was more than 100 µM with A549 NSCLC, 74.9 µM in the test with HCT-15 colon and more than 100 µM in the test on MDA-MB-231 breast.

Take `CC(=O)OCC1=C(C)C(OC(=O)C(OC(C)=O)[C@@H](NC(=O)c2ccccc2)c2ccccc2)CCC1(C)C` (some centres undefined): the TGI in the test with MOLT-4 leukemia, in the test with OVCAR-3 ovarian, in the test with A498 renal, in the test on BT-549 breast, in the test with EKVX NSCLC and in the test with SW-620 colon was more than 100 µM each time. The TGI in the test on HL-60(TB) leukemia, with UACC-257 melanoma, in the test with U251 CNS, in the test with HCC-2998 colon, in the test on MALME-3M melanoma and with SF-539 CNS was more than 100 µM in each case. The TGI in the test on RPMI-8226 leukemia, with A549 NSCLC, in the test on HCT-15 colon and in the test with MDA-MB-231 breast was more than 100 µM throughout.

As for `COC(=O)c1c(C)cccc1CC1Cc2c(C)cccc2C1=O` (centres undefined), the TGI was 79.1 µM in the test on MOLT-4 leukemia; more than 100 µM in the test on OVCAR-3 ovarian; 73.7 µM in the test with A498 renal; more than 100 µM in the test on BT-549 breast; more than 100 µM with EKVX NSCLC; more than 100 µM in the test on SW-620 colon. Besides, the TGI in the test with HL-60(TB) leukemia is 45.5 µM; in the test with UACC-257 melanoma it was 72.9 µM; in the test with U251 CNS, more than 100 µM; in the test on HCC-2998 colon it was more than 100 µM; in the test with MALME-3M melanoma it was more than 100 µM; in the test with SF-539 CNS, more than 100 µM. The TGI in the test with NCI-H522 lung was 57.8 µM; in the test on A549 NSCLC, more than 100 µM; with HCT-15 colon, more than 100 µM; with MDA-MB-231 breast, more than 100 µM.

In the case of `O=C(N/N=C\c1ccc2ccccc2c1)Nc1ccc([N+](=O)[O-])cc1`, the TGI is 97.7 µM with MOLT-4 leukemia; 55.4 µM in the test with OVCAR-3 ovarian; more than 77.3 µM in the test on BT-549 breast; more than 100 µM in the test on EKVX NSCLC; more than 100 µM in the test with SW-620 colon; more than 100 µM in the test on HL-60(TB) leukemia. The TGI is more than 75 µM in the test on UACC-257 melanoma; more than 100 µM with U251 CNS; more than 63.3 µM with HCC-2998 colon; more than 70.9 µM with MALME-3M melanoma; more than 69.7 µM with SF-539 CNS; more than 66.8 µM in the test with NCI-H522 lung. Moreover, the TGI in the test on RPMI-8226 leukemia was more than 100 µM; in the test on A549 NSCLC it was more than 85 µM; in the test on HCT-15 colon, more than 72.6 µM; in the test with MDA-MB-231 breast, more than 100 µM.
